Source: patent US11332485B2, “Penicillin-binding protein inhibitors” (priority 2017, dated 2022)

Legend:
[1] = system: S. aureus ATCC 29213; assay: Broth microdilution MIC assay; format: cell-based; conditions: Staphylococcus aureus, ATCC29213; broth microdilution, 16-20 hours at 37° C.; read-out: S. aureus 29213 MIC
In short: (§1)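 MIC taken by eye as the lowest compound concentration showing no growth after 16-20 hours at 37° C. Cultures grown 3-5 h in cation-supplemented Mueller-Hinton broth were added to 2-fold compound dilution series at a starting density of 5×10^5 CFU/mL, following CLSI methods.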

[2] = system: hyper-permeable E. coli 901C; assay: Broth microdilution MIC assay; format: cell-based; conditions: Escherichia coli, read-out: E. coli 901C MIC
In short: as §1

[3] = system: E. coli DH5α/pLBII-CTX-M15; assay: Broth microdilution MIC assay, engineered strain producing CTX-M15; format: cell-based, Escherichia coli; conditions: Escherichia coli, read-out: E. coli DH5α/pLBII-CTX-M15 Microbiological Activity (MIC)
In short: (§2)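 CLSI broth microdilution in cation-supplemented Mueller-Hinton broth, 2-fold compound dilutions, 5×10^5 CFU/mL inoculum, 16-20 h at 37° C, MIC read visually as lowest concentration without growth. E. coli DH5α carries CTX-M15 on pLBII under Lac promoter, or empty pLBII as control.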

[4] = target: T1, PBP3 from Escherichia coli (Escherichia coli, UniProt P0AD68); assay: Fluorescence polarization competition binding assay with Bocillin-FL
T1 construct: made in house
T1 sequence (P0AD68 1-577): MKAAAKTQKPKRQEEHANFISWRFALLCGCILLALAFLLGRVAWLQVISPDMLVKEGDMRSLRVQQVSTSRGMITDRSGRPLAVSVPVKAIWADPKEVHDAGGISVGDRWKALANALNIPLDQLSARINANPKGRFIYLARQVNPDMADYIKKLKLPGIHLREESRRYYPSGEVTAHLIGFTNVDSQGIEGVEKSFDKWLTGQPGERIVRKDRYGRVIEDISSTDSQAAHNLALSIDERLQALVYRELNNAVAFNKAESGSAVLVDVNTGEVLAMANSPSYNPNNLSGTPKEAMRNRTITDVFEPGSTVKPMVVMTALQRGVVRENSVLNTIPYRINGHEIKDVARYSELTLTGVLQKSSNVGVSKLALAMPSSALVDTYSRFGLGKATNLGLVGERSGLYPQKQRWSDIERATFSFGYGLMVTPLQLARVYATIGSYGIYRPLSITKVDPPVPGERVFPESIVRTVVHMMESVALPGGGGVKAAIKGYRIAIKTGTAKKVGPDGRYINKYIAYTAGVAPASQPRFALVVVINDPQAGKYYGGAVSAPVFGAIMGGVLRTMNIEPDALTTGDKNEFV
Text: To determine the ability of boronic acid-based test PBP inhibitors to bind Penicillin Binding Proteins (PBPs), Bocillin-FL (fluorescently-labeled penicillin V; ThermoFisher Scientific) was used in a fluorescence polarization (FP) competition binding assay to assess boronic acid PBP inhibitor binding to PBP3 from Escherichia coli. PBP3 from Escherichia coli was cloned and purified as described previously (King, D. T, et al., ACS Infectious Diseases 2015, 1, 175-184). To establish assay conditions for competition binding, an enzyme titration/saturation binding experiment was performed. Bocillin-FL was prepared at […] in a buffer comprised of 50 mM Hepes (pH 8.0), 300 mM NaCl and 5% (v/v) glycerol. Saturation binding was performed by mixing […] of PBP3 ranging in concentrations from […] with 40 μl of the 0.2 μM Bocillin-FL solution, in individual wells of a black 384-well microplate. FP was measured immediately upon addition of PBP3 (Ex, Em), using a Cytation3 (BioTek) microplate reader and measured continuously for 60 minutes. […] The competition binding assay was validated using the beta-lactam ampicillin, with Bocillin-FL at a final concentration of 0.1 μM, PBP3 at a final concentration of 1.5 μM and concentrations of ampicillin from 0-1000 μM. PBP3 was incubated with ampicillin at different concentrations in a black 384-well microplate (Corning) for 30 minutes, then Bocillin-FL added and the FP immediately measured for 60 minutes. […] Binding assays for boronic acid PBP inhibitors were performed in an identical fashion. Representative results are shown in Table 3, where A represents a potency of >500 μM, B represents a potency between 30 μM and 500 μM inclusive, and C represents a potency of <30 μM. NT=Not Tested.

[5] = system: E. coli DH5α/pLBII; assay: Broth microdilution MIC assay, empty vector control strain; format: cell-based; conditions: Escherichia coli, read-out: E. coli DH5α/pLBII Microbiological Activity (MIC)
In short: as §2

Compound	MIC [1]	MIC [2]	MIC [3]	EC50 [4]	MIC [5]
CCCCN1CCN(C(=O)NC(C(=O)N[C@H]2Cc3cccc(C(=O)O)c3OB2O)c2csc(N)n2)C(=O)C1=O (stereo partly drawn) [Example 53, (3R)-3-(2-(2-aminothiazol-4-yl)-2-(4-butyl-2,3-dioxopiperazine-1-carboxamido)acetamido)-2-hydroxy-3,4-dihydro-2H-benzo[e][1,2]oxaborinine-8-carboxylic acid]	64 to 128 µg/mL	< 64 µg/mL	32 to 64 µg/mL	< 30 µM	32 to 64 µg/mL
Nc1nc(C(NC(=O)N2CCN(Cc3ccccc3)C(=O)C2=O)C(=O)N[C@H]2Cc3cccc(C(=O)O)c3OB2O)cs1 (stereo partly drawn) [Example 49, (3R)-3-(2-(2-aminothiazol-4-yl)-2-(4-benzyl-2,3-dioxopiperazine-1-carboxamido)acetamido)-2-hydroxy-3,4-dihydro-2H-benzo[e][1,2]oxaborinine-8-carboxylic acid]	64 to 128 µg/mL	< 64 µg/mL	128 to 256 µg/mL	< 30 µM	128 to 256 µg/mL
CC(C)CN1CCN(C(=O)NC(C(=O)N[C@H]2Cc3cccc(C(=O)O)c3OB2O)c2csc(N)n2)C(=O)C1=O (stereo partly drawn) [Example 66, (3R)-3-(2-(2-aminothiazol-4-yl)-2-(4-isobutyl-2,3-dioxopiperazine-1-carboxamido)acetamido)-2-hydroxy-3,4-dihydro-2H-benzo[e][1,2]oxaborinine-8-carboxylic acid]	64 to 128 µg/mL	< 64 µg/mL	32 to 64 µg/mL	30 to 500 µM	32 to 64 µg/mL
Nc1nc(C(NC(=O)N2CCN(CCF)C(=O)C2=O)C(=O)N[C@H]2Cc3cccc(C(=O)O)c3OB2O)c(Cl)s1 (stereo partly drawn) [Example 57, (3R)-3-(2-(2-amino-5-chlorothiazol-4-yl)-2-(4-(2-fluoroethyl)-2,3-dioxopiperazine-1-carboxamido)acetamido)-2-hydroxy-3,4-dihydro-2H-benzo[e][1,2]oxaborinine-8-carboxylic acid]	> 128 µg/mL	< 64 µg/mL	8 to 16 µg/mL	30 to 500 µM	8 to 16 µg/mL
COCCN1CCN(C(=O)NC(C(=O)N[C@H]2Cc3cccc(C(=O)O)c3OB2O)c2csc(N)n2)C(=O)C1=O (stereo partly drawn) [Example 61, (3R)-3-(2-(2-aminothiazol-4-yl)-2-(4-(2-methoxyethyl)-2,3-dioxopiperazine-1-carboxamido)acetamido)-2-hydroxy-3,4-dihydro-2H-benzo[e][1,2]oxaborinine-8-carboxylic acid]	64 to 128 µg/mL	< 64 µg/mL	32 to 64 µg/mL	< 30 µM	32 to 64 µg/mL
Nc1nc(C(NC(=O)N2CCN(CCO)C(=O)C2=O)C(=O)N[C@H]2Cc3cccc(C(=O)O)c3OB2O)cs1 (stereo partly drawn) [Example 60, (3R)-3-(2-(2-aminothiazol-4-yl)-2-(4-(2-hydroxyethyl)-2,3-dioxopiperazine-1-carboxamido)acetamido)-2-hydroxy-3,4-dihydro-2H-benzo[e][1,2]oxaborinine-8-carboxylic acid]	64 to 128 µg/mL	< 64 µg/mL	8 to 16 µg/mL	30 to 500 µM	8 to 16 µg/mL
NCCN1CCN(C(=O)NC(C(=O)N[C@H]2Cc3cccc(C(=O)O)c3OB2O)c2csc(N)n2)C(=O)C1=O (stereo partly drawn) [Example 58, (3R)-3-(2-(4-(2-aminoethyl)-2,3-dioxopiperazine-1-carboxamido)-2-(2-aminothiazol-4-yl)acetamido)-2-hydroxy-3,4-dihydro-2H-benzo[e][1,2]oxaborinine-8-carboxylic acid]	> 128 µg/mL	< 64 µg/mL	32 to 64 µg/mL	30 to 500 µM	32 to 64 µg/mL
CCN1CCN(C(=O)NC(C(=O)N[C@H]2Cc3cccc(C(=O)O)c3OB2O)c2csc(N)n2)CC1=O (stereo partly drawn) [Example 62, (3R)-3-(2-(2-aminothiazol-4-yl)-2-(4-ethyl-3-oxopiperazine-1-carboxamido)acetamido)-2-hydroxy-3,4-dihydro-2H-benzo[e][1,2]oxaborinine-8-carboxylic acid]	> 128 µg/mL	< 64 µg/mL	128 to 256 µg/mL	30 to 500 µM	128 to 256 µg/mL
CC(C)N1CCN(C(=O)NC(C(=O)N[C@H]2Cc3cccc(C(=O)O)c3OB2O)c2csc(N)n2)C(=O)C1=O (stereo partly drawn) [Example 55, (3R)-3-(2-(2-aminothiazol-4-yl)-2-(4-isopropyl-2,3-dioxopiperazine-1-carboxamido)acetamido)-2-hydroxy-3,4-dihydro-2H-benzo[e][1,2]oxaborinine-8-carboxylic acid]	64 to 128 µg/mL	< 64 µg/mL	8 to 16 µg/mL	30 to 500 µM	8 to 16 µg/mL
CCN1CCN(C(=O)N[C@H](CCO)C(=O)N[C@H]2Cc3cccc(C(=O)O)c3OB2O)C(=O)C1=O [Example 59, (R)-3-((R)-2-(4-ethyl-2,3-dioxopiperazine-1-carboxamido)-4-hydroxybutanamido)-2-hydroxy-3,4-dihydro-2H-benzo[e][1,2]oxaborinine-8-carboxylic acid]	> 128 µg/mL	< 64 µg/mL	32 to 64 µg/mL	> 500 µM	32 to 64 µg/mL
Nc1nc(C(NC(=O)N2CCN(CCF)C(=O)C2=O)C(=O)N[C@H]2Cc3cccc(C(=O)O)c3OB2O)cs1 (stereo partly drawn) [Example 52, (3R)-3-(2-(2-aminothiazol-4-yl)-2-(4-(2-fluoroethyl)-2,3-dioxopiperazine-1-carboxamido)acetamido)-2-hydroxy-3,4-dihydro-2H-benzo[e][1,2]oxaborinine-8-carboxylic acid]	64 to 128 µg/mL	< 64 µg/mL	8 to 16 µg/mL	30 to 500 µM	8 to 16 µg/mL
